Laboratory results reported in patent publication US20060057614A1 (priority 2004, published 2006).

How the values were obtained:
[1] = target: muscle α1β1γδ nicotinic acetylcholine receptor (expressed in Xenopus oocytes); assay: cell-based or functional assay
α1β1γδ nAChR = α1β1γδ nAChR (Homo sapiens, UniProt P02708+P07510+Q07001); settings: cited from earlier work
α7nAChR = α7nAChR (Homo sapiens, UniProt P36544); settings: cited from earlier work
α4β2 nAChR = α4β2 nAChR (Homo sapiens, UniProt P17787+P43681); settings: cited from earlier work
α3β2 nAChR = α3β2 nAChR (Homo sapiens, UniProt P17787+P32297); settings: cited from earlier work
[2] = target: T1, zebrafish acetylcholinesterase (synaptic, in muscle) (zebrafish, UniProt Q9DDE3 24-634)
T1 construct: whole, on cells; also called synaptic acetylcholinesterase

α4β2 nAChR, sequence (P43681 29-627): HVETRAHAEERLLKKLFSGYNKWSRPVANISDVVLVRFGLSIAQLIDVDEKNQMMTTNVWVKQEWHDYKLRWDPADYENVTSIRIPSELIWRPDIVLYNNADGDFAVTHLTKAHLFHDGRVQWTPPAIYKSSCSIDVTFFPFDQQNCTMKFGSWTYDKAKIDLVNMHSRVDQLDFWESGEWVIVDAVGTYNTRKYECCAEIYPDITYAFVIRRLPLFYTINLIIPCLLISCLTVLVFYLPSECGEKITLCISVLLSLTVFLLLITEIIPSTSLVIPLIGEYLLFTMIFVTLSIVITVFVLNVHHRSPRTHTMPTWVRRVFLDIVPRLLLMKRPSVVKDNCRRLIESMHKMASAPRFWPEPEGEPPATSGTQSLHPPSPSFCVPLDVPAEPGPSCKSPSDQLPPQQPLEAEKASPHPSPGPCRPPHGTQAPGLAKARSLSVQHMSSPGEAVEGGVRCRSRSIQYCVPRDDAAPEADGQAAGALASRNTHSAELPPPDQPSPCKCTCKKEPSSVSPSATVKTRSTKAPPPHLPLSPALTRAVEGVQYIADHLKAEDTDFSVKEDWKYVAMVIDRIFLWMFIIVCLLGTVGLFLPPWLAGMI
α4β2 nAChR, sequence (P17787 26-502): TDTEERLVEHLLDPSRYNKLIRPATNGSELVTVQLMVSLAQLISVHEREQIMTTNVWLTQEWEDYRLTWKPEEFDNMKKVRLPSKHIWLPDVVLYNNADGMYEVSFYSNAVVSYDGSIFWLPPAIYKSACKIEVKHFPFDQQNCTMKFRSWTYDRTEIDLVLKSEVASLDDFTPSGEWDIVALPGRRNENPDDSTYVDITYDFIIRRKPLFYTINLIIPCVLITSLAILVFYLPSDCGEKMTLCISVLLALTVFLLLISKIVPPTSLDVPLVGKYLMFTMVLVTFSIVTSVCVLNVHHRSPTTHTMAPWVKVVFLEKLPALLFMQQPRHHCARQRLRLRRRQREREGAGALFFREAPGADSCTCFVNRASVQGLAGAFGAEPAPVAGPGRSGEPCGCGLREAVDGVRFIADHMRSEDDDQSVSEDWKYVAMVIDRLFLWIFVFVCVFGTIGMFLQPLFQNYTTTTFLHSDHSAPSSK
α1β1γδ nAChR, sequence (P11230 24-501): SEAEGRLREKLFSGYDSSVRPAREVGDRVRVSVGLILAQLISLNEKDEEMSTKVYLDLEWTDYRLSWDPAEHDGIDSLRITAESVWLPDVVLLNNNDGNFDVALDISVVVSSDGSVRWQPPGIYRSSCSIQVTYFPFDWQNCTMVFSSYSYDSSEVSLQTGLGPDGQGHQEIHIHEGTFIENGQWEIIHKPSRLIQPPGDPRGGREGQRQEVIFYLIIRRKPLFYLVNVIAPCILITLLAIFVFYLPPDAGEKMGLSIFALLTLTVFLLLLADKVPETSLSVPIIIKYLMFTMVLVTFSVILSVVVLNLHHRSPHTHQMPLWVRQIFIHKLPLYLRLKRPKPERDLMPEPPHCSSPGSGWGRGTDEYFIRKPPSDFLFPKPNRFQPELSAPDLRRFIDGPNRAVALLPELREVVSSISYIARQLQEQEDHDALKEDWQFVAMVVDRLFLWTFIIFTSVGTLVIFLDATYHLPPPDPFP
α1β1γδ nAChR, sequence (P02708 21-457): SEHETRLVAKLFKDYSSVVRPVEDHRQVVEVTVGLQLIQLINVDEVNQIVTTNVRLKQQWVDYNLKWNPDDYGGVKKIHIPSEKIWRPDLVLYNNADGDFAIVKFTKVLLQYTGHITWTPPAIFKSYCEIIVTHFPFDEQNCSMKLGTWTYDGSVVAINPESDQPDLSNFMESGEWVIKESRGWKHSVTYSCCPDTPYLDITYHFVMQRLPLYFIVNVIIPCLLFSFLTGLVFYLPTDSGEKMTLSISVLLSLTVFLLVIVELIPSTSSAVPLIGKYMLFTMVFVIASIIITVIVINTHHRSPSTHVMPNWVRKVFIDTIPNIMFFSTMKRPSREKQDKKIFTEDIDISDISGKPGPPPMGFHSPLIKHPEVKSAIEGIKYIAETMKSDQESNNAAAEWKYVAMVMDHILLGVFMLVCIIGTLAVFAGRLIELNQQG
α1β1γδ nAChR, sequence (Q07001 22-517): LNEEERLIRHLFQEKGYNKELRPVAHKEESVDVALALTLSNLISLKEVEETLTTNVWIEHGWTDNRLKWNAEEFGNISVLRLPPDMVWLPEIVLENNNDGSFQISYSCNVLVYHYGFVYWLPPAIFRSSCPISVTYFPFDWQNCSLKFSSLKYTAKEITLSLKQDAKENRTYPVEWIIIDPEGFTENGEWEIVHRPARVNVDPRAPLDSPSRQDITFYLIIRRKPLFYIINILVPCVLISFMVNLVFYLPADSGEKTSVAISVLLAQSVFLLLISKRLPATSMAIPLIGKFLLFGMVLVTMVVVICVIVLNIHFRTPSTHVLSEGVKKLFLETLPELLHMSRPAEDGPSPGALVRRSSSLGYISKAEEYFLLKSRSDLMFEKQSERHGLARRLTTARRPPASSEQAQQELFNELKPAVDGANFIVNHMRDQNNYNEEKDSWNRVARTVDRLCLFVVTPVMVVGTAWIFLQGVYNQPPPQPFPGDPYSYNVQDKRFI
α1β1γδ nAChR, sequence (P07510 23-517): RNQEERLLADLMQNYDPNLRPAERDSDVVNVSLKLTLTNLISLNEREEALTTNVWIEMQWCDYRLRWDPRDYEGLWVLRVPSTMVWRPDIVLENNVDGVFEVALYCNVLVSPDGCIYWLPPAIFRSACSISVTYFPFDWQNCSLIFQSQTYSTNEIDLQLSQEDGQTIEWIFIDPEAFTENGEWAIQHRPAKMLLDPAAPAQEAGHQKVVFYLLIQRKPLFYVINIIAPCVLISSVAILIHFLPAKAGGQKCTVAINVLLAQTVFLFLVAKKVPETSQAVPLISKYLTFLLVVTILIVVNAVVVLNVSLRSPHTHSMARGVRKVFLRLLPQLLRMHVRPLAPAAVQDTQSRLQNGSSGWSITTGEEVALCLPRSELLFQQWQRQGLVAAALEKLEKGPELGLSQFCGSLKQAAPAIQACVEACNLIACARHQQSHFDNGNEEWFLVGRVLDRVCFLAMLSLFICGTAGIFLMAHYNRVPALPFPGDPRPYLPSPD
α7nAChR, sequence (P36544 23-502 limits assumed): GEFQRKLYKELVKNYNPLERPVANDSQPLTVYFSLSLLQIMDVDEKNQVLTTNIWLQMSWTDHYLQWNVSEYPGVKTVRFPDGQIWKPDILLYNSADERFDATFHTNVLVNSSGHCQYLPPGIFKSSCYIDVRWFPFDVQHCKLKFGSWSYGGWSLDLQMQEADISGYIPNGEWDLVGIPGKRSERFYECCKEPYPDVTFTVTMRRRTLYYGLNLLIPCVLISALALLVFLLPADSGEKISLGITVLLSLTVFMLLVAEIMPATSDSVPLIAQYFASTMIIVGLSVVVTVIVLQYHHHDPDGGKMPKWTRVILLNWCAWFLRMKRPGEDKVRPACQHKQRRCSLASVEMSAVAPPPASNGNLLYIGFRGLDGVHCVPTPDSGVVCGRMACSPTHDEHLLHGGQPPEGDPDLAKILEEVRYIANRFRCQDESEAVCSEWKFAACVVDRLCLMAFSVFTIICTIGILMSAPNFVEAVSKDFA
α3β2 nAChR, sequence (P32297 32-505 limits assumed): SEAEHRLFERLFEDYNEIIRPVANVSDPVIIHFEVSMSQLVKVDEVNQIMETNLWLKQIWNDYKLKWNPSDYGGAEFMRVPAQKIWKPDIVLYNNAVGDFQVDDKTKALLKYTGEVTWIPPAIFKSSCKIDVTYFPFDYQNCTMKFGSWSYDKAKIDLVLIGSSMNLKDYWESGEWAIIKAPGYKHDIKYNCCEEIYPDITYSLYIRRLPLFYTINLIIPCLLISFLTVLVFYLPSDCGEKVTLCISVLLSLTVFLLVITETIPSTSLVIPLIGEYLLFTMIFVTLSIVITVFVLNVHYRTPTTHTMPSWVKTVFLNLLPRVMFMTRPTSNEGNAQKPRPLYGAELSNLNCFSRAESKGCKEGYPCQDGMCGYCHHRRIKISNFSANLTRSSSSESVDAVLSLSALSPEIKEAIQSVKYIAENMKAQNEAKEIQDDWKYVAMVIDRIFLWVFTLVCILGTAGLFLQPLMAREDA
α3β2 nAChR, sequence (P17787 26-502 limits assumed): as the sequence (P17787 26-502) above

| Molecule | Affinity (α1β1γδ nAChR) [nM] | Affinity (α7nAChR) [nM] | Affinity (α4β2 nAChR) [µM] | further results |
| --- | --- | --- | --- | --- |
| tethered α-bungarotoxin |  |  |  | average peak ACh current, Xenopus oocytes (receptor alone: 8.46 +/-3.7 µA) [1]: 0 µA |
| α-bungarotoxin | 0.4 | 0.95 | 100 |  |
| α-conotoxin MII |  |  |  | Affinity (α3β2 nAChR): 0.5 nM |
| κ-bungartotoxin | 1000 | 1 to 12 | >0.1 |  |
| Alexa 647 conjugated Fasciculin 2 (ligand, Bought reagent; also called FasII) TMCYSHTTTSRAILTNCGENSCYRKSRRHPPKMVLGRGCGCPPGDDNLEVKCCTSPDKCNY |  |  |  | binding result [2]: binds |
